Read-outs that look alike come from different tables or passages of the source.
Assays:
[1] = tested on: Hordeum vulgare (spring barley, HORVS); assay type: in vivo; conditions: for % visual injury (Obs): alone 280 g/ha
Method: (§1) Seeds of the desired test plant species were planted in a 90:10% v/v (volume/volume) mixture of PRO-MIX® BX (Premier Tech Horticulture, Quakertown, PA, USA) and PROFILE® GREENS GRADE™ (Profile Products LLC, Buffalo Grove, IL, USA) planting mixture, which typically has a pH of 5.2 to 6.2 and an organic matter content of at least 50 percent, in plastic pots with a surface area of 103.2 square centimeters (cm^2). […] The plants were grown for 7-36 days (d) in a greenhouse with an approximate 14-hour (h) photo-period which was maintained at about 23° C. during the day and 22° C. during the night. Nutrients and water were added on a regular basis and supplemental lighting was provided with overhead metal halide 1000-Watt lamps as necessary. The plants were employed for testing when they reached the second or third true leaf stage.
(§2) Emulsifiable concentrates of each of each pyridine carboxylate herbicide (Compound A or Compound B) were prepared at 100 grams acid equivalent per liter (g ae/L). The emulsifiable concentrates also included a safener, cloquintocet-mexyl, at 120 grams active ingredient per liter (g ai/L), unless otherwise noted below. An aliquot of each emulsifiable concentrate was placed in a 25 mL glass vial and diluted with an aqueous mixture of 1.25% (v/v) ACTIROB® B esterified rapeseed oil (Bayer Crop Science, Research Triangle Park, NC, USA) or MSO® Concentrate with LECI-TECH® methylated soybean oil (Loveland Products, Loveland, CO, USA) to obtain concentrated stock solutions at the highest application rate for each herbicide, based upon a 12 milliliter (mL) application volume at a rate of 187 liters per hectare (L/ha). The concentrated stock solutions were further diluted with an aqueous mixture of 1.25% v/v ACTIROB® B or MSO® Concentrate with LECI-TECH® to obtain stock solutions at reduced application rates for each herbicide. Spray solutions of the herbicide combinations (Compound A or Compound B plus synthetic auxin herbicide or auxin transport inhibitor) were prepared by adding weighed amounts or aliquots of the synthetic auxin herbicide or auxin transport inhibitor to the stock solutions of Compound A or Compound B to form 12-mL spray solutions in two-way combinations.
(§3) The spray solutions were applied to the plant material with an overhead Mandel track sprayer equipped with 8002E nozzles calibrated to deliver 187 L/ha over an application area of 0.503 square meters (m^2) at a spray height of 18 inches (43 centimeters (cm)) above the average plant canopy. Control plants were sprayed in the same manner with the solvent blank. All pyridine carboxylate herbicide (component a) application rates are given as “g ae/ha” and all synthetic auxin herbicide or auxin transport inhibitor (component b) application rates are given as “g ai/ha.”
(§4) The treated plants and control plants were placed in a greenhouse as described above and watered by sub-irrigation to prevent wash-off of the test compounds. After 20-22 d, the condition of the test plants as compared with that of the control plants was determined visually and scored on a scale of 0 to 100 percent where 0 corresponds to no injury and 100 corresponds to complete kill.

[2] = tested on: Triticum aestivum (spring wheat, TRZAS); assay type: in vivo; conditions: for % visual injury (crop phytotoxicity): c1-2 Compound A 7.5/10; for % visual injury (Obs): alone 280 g/ha
[3] = tested on: Brassica napus (spring rape, BRSNN); experiment: Greenhouse postemergence trial BRSNN; assay type: in vivo
[4] = tested on: Cirsium arvense (Canadian thistle, CIRAR); experiment: Greenhouse postemergence trial CIRAR; assay type: in vivo
Method: as §1, §2, §3, §4

[5] = tested on: Capsella bursa-pastoris (shepherd's purse, CAPBP); experiment: Greenhouse postemergence trial CAPBP; assay type: in vivo; conditions: CAPBP
[6] = tested on: Amaranthus retroflexus (pigweed, AMARE); experiment: Greenhouse postemergence trial AMARE; assay type: in vivo; conditions: for % visual injury: c1-2 Compound A 7.5/10;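 for all read-outs here: Greenhouse-grown plants sprayed at second to third true leaf stage, injury rated by eye after 20-22 d versus solvent-blank sprayed controls, 0 = no injury, 100 = complete kill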
[7] = tested on: Matricaria discoidea (pineapple weed, MATMT); experiment: Greenhouse postemergence trial MATMT; assay type: in vivo; conditions: MATMT
[8] = tested on: Cyanus segetum (cornflower, CENCY); experiment: Greenhouse postemergence trial CENCY; assay type: in vivo; conditions: CENCY
[9] = tested on: Chenopodium album L. (common lambsquarters, CHEAL); experiment: Greenhouse postemergence trial CHEAL; assay type: in vivo; conditions: for % visual injury: c1-2 Compound A 7.5/10;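 for all read-outs here: greenhouse plants sprayed at second to third true leaf stage, injury rated by eye after 20-22 d versus solvent-blank sprayed controls, 0 = no injury, 100 = complete kill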
Method: (§5) The plants were grown for 7-36 days (d) in a greenhouse with an approximate 14-hour (h) photo-period which was maintained at about 23° C. during the day and 22° C. during the night. Nutrients and water were added on a regular basis and supplemental lighting was provided with overhead metal halide 1000-Watt lamps as necessary. The plants were employed for testing when they reached the second or third true leaf stage.
(§6) The emulsifiable concentrates also included a safener, cloquintocet-mexyl, at 120 grams active ingredient per liter (g ai/L), unless otherwise noted below.
(§7) Control plants were sprayed in the same manner with the solvent blank. All pyridine carboxylate herbicide (component a) application rates are given as “g ae/ha” and all synthetic auxin herbicide or auxin transport inhibitor (component b) application rates are given as “g ai/ha.”
as §4

[10] = tested on: Lamium purpureum (purple deadnettle, LAMPU); experiment: Greenhouse postemergence trial LAMPU
[11] = tested on: Papaver rhoeas (corn poppy), herbicide-resistant (PAPRH-R); experiment: Greenhouse postemergence trial PAPRH-R; assay type: in vivo; conditions: PAPRH-R
[12] = tested on: Matricaria chamomilla (wild chamomile, MATCH); experiment: Greenhouse postemergence trial MATCH; assay type: in vivo; conditions: MATCH;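 note: greenhouse plants sprayed at second to third true leaf stage, injury rated by eye 20-22 d later versus solvent-blank controls on 0–100 scale, 0 no injury, 100 complete kill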
[13] = tested on: Salsola kali (Russian thistle, SASKR); experiment: Greenhouse postemergence trial SASKR; assay type: in vivo; conditions: SASKR;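 note: greenhouse plants sprayed at second or third true leaf stage, injury rated by eye after 20-22 d against solvent-blank controls, 0 meaning no injury, 100 complete kill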
[14] = tested on: Polygonum convolvulus (wild buckwheat, POLCO); experiment: Greenhouse postemergence trial POLCO; assay type: in vivo; conditions: for % visual injury (Obs): alone 280 g/ha
[15] = tested on: Hordeum vulgare (winter barley, HORVW); experiment: Greenhouse postemergence crop phytotoxicity HORVW; assay type: in vivo; conditions: HORVW
Method: as §1, §2, §3, §4

[16] = tested on: Sinapis arvensis (wild mustard, SINAR); experiment: Greenhouse postemergence trial SINAR; assay type: in vivo; conditions: SINAR
Method: as §5, §6, §7, §4

[17] = tested on: Viola tricolor (wild pansy, VIOTR); experiment: Greenhouse postemergence trial VIOTR;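 note: greenhouse plants sprayed at second to third true leaf stage, injury rated visually after 20-22 d against solvent-blank sprayed controls, 0 meaning no injury and 100 complete kill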
[18] = tested on: Viola arvensis (field violet, VIOAR); experiment: Greenhouse postemergence trial VIOAR; assay type: in vivo; conditions: VIOAR
Method: as §1, §2, §3, §4

[19] = tested on: Papaver rhoeas (corn poppy, PAPRH); experiment: Greenhouse postemergence trial PAPRH; assay type: in vivo; conditions: PAPRH
[20] = tested on: Veronica hederifolia (ivyleaf speedwell, VERHE); experiment: Greenhouse postemergence trial VERHE; assay type: in vivo; conditions: VERHE
[21] = tested on: Anthemis arvensis (field chamomile, ANTAR); experiment: Greenhouse postemergence trial ANTAR; assay type: in vivo; conditions: ANTAR
[22] = tested on: Stellaria media (chickweed, STEME); experiment: Greenhouse postemergence trial STEME; assay type: in vivo; conditions: STEME
Method: as §1, §2, §3, §4

[23] = tested on: Triticum aestivum (winter wheat, TRZAW); experiment: Greenhouse postemergence crop phytotoxicity TRZAW; assay type: in vivo; conditions: TRZAW
Method: as §1, §2, §3, §4

[24] = tested on: Kochia scoparia (kochia, KCHSC); experiment: Greenhouse postemergence trial KCHSC; assay type: in vivo; conditions: KCHSC; for % visual injury (Obs): alone 280 g/ha
Method: as §1, §2, §3, §4

[25] = tested on: Matricaria inodora (false chamomile, MATIN); experiment: Greenhouse postemergence trial MATIN; assay type: in vivo; conditions: MATIN
[26] = tested on: Brassica napus (winter rape, BRSNW); experiment: Greenhouse postemergence trial BRSNW; assay type: in vivo
Method: as §1, §2, §3, §4

[27] = tested on: Veronica persica (bird's-eye speedwell, VERPE); experiment: Greenhouse postemergence trial VERPE; assay type: in vivo
[28] = c3 Quinclorac 140, c4-5 A 7.5/10 + Quinclorac 140 g/ha
[29] = Papaver rhoeas, post-emergence, Quinclorac 560 g/ha, read-out: % visual injury Obs
[30] = partner herbicide 560 g/ha alone
[31] = c3 2,4-D-EHE 280, c4-5 A 7.5/10 + 2,4-D-EHE 280 g/ha

O=C(O)COc1ccc(Cl)cc1Cl [2,4-D Choline, 2,4-D choline, reference compound]
% visual injury, Obs (crop phytotoxicity) ([1]; Hordeum vulgare (spring barley, HORVS), in vivo): 0% | % visual injury, Obs (crop phytotoxicity) ([2]; Triticum aestivum (spring wheat, TRZAS), in vivo): 0% | % visual injury, Obs ([3]; in vivo): 80%

O=C(O)c1c(Cl)ccc2cc(Cl)cnc12 [Quinclorac, quinclorac, reference compound]
pest or weed control ([4]; Cirsium arvense, post-emergence, CIRAR, Quinclorac 560 g/ha, read-out: % visual injury Obs): 30% | pest or weed control ([5]; Capsella bursa-pastoris, post-emergence, Quinclorac 560 g/ha, read-out: % visual injury Obs): 0% | % visual injury [6, 28]: 0% | pest or weed control ([7]; Matricaria discoidea, post-emergence, Quinclorac 560 g/ha, read-out: % visual injury Obs): 0% | % visual injury Obs ([1]; HORVS, Quinclorac 560 g/ha): 0% | % visual injury (crop phytotoxicity) ([1]; c1-2 Compound A 7.5/10, c3 Quinclorac 140, c4-5 A 7.5/10 + Quinclorac 140 g/ha): 5% | pest or weed control ([8]; Centaurea cyanus, post-emergence, Quinclorac 560 g/ha, read-out: % visual injury Obs): 60% | % visual injury [9, 28]: 0% | % visual injury Obs ([2]; TRZAS, Quinclorac 560 g/ha): 0% | % visual injury (crop phytotoxicity) [2, 28]: 0% | pest or weed control at 560 g/ha ([10]; Lamium purpureum, post-emergence, read-out: % visual injury Obs): 10% | pest or weed control [11, 29]: 50% | pest or weed control ([12]; Matricaria chamomilla, post-emergence, Quinclorac 560 g/ha, read-out: % visual injury Obs): 10% | pest or weed control ([13]; Salsola kali, post-emergence, Quinclorac 560 g/ha, read-out: % visual injury Obs): 10% | pest or weed control ([14]; Fallopia convolvulus, post-emergence, POLCO, Quinclorac 560 g/ha, read-out: % visual injury Obs): 10% | % visual injury Obs ([15]; Quinclorac 560 g/ha): 0% | pest or weed control ([16]; Mutarda arvensis, post-emergence, Quinclorac 560 g/ha, read-out: % visual injury Obs): 10% | pest or weed control at 560 g/ha ([17]; Viola tricolor, post-emergence, read-out: % visual injury Obs): 10% | pest or weed control ([18]; Viola arvensis, post-emergence, Quinclorac 560 g/ha, read-out: % visual injury Obs): 30% | pest or weed control [19, 29]: 10% | pest or weed control ([20]; Veronica hederifolia, post-emergence, Quinclorac 560 g/ha, read-out: % visual injury Obs): 30% | pest or weed control ([21]; Anthemis arvensis, post-emergence, Quinclorac 560 g/ha, read-out: % visual injury Obs): 0% | pest or weed control ([22]; Stellaria media, post-emergence, Quinclorac 560 g/ha, read-out: % visual injury Obs): 5% | % visual injury Obs ([23]; Quinclorac 560 g/ha): 0% | pest or weed control ([24]; Bassia scoparia, post-emergence, Quinclorac 560 g/ha, read-out: % visual injury Obs): 10% | pest or weed control ([25]; Tripleurospermum inodorum, post-emergence, Quinclorac 560 g/ha, read-out: % visual injury Obs): 0% | plant injury ([26]; Brassica napus, post-emergence, BRSNW, Quinclorac 560 g/ha, read-out: % visual injury Obs): 10% | pest or weed control ([27]; Veronica persica, post-emergence, VERVE, Quinclorac 560 g/ha, read-out: % visual injury Obs): 50%

CCCCC(CC)COC(=O)COc1ccc(Cl)cc1Cl [2,4-D-EHE, 2,4-D-2-ethylhexyl, reference compound]
CIRAR % visual injury Obs ([4]; 2,4-D-EHE 280 g/ha (Table 36)): 45% | visual injury, Obs ([4]; CIRAR, partner herbicide 560 g/ha alone): 65% | visual injury, Obs [5, 30]: 70% | AMARE % visual injury Obs ([6]; 2,4-D-EHE 280 g/ha (Table 36)): 45% | % visual injury [6, 31]: 70% | visual injury, Obs [7, 30]: 5% | visual injury, Obs [8, 30]: 100% | % visual injury [9, 31]: 75% | % visual injury (crop phytotoxicity) [2, 31]: 0% | visual injury, Obs ([10]; LAMPU, partner herbicide 560 g/ha alone): 20% | visual injury, Obs [11, 30]: 50% | visual injury, Obs [12, 30]: 10% | visual injury, Obs [13, 30]: 65% | POLCO % visual injury Obs ([14]; 2,4-D-EHE 280 g/ha (Table 36)): 23% | POLCO Δ (Obs minus Exp) ([14]; 2,4-D-EHE 280 g/ha (Table 36)): 11% | visual injury, Obs ([14]; POLCO, partner herbicide 560 g/ha alone): 30% | visual injury, Obs [16, 30]: 85% | visual injury, Obs ([17]; VIOTR, partner herbicide 560 g/ha alone): 65% | visual injury, Obs [18, 30]: 60% | visual injury, Obs [19, 30]: 60% | visual injury, Obs [20, 30]: 70% | visual injury, Obs [21, 30]: 60% | visual injury, Obs [22, 30]: 10% | visual injury, Obs [24, 30]: 65% | visual injury, Obs [25, 30]: 10% | BRSNW % visual injury Obs ([26]; 2,4-D-EHE 280 g/ha (Table 36)): 65% | BRSNW Δ (Obs minus Exp) ([26]; 2,4-D-EHE 280 g/ha (Table 36)): 3% | visual injury, Obs ([26]; BRSNW, partner herbicide 560 g/ha alone): 100% | visual injury, Obs ([27]; VERPE, partner herbicide 560 g/ha alone): 65%

CNC.O=C(O)COc1ccc(Cl)cc1Cl [2,4-D DMA]
% visual injury (Obs) ([1]; HORVS): 0% | % visual injury (Obs) ([2]; TRZAS): 5% | % visual injury (Obs) ([14]; POLCO): 55% | % visual injury (Obs) ([17]; VIOTR, alone 280 g/ha): 65% | % visual injury (Obs) [24]: 10% | % visual injury (Obs) ([3]; BRSNN, alone 280 g/ha): 83%

Cc1cc(Cl)ccc1OC(C)C(=O)O (stereo not shown) [Mecoprop]
% visual injury (Obs) ([4]; CIRAR, alone 280 g/ha): 68% | % visual injury, Obs ([4]; CIRAR, applied alone, 560 g/ha): 70% | % visual injury, Obs ([5]; applied alone, 560 g/ha): 60% | % visual injury (Obs) ([6]; AMARE, alone 280 g/ha): 58% | % visual injury, Obs ([7]; applied alone, 560 g/ha): 10% | % visual injury (Obs) ([1]; HORVS): 0% | % visual injury, Obs ([1]; HORVS, applied alone, 560 g/ha): 0% | % visual injury, Obs ([8]; applied alone, 560 g/ha): 100% | % visual injury (Obs) ([9]; CHEAL, alone 280 g/ha): 73% | % visual injury (Obs) ([2]; TRZAS): 0% | % visual injury, Obs ([2]; TRZAS, applied alone, 560 g/ha): 0% | % visual injury, Obs ([10]; LAMPU, applied alone, 560 g/ha): 10% | % visual injury, Obs ([11]; applied alone, 560 g/ha): 30% | % visual injury (Obs) ([12]; alone 280 g/ha): 18% | % visual injury, Obs ([12]; applied alone, 560 g/ha): 10% | % visual injury, Obs ([13]; applied alone, 560 g/ha): 50% | % visual injury (Obs) ([14]; POLCO): 10% | % visual injury, Obs ([14]; POLCO, applied alone, 560 g/ha): 20% | % visual injury, Obs ([15]; applied alone, 560 g/ha): 0% | % visual injury (Obs) ([16]; alone 280 g/ha): 80% | % visual injury, Obs ([16]; applied alone, 560 g/ha): 95% | % visual injury, Obs ([17]; VIOTR, applied alone, 560 g/ha): 65% | % visual injury, Obs ([18]; applied alone, 560 g/ha): 10% | % visual injury, Obs ([19]; applied alone, 560 g/ha): 65% | % visual injury, Obs ([20]; applied alone, 560 g/ha): 50% | % visual injury, Obs ([21]; applied alone, 560 g/ha): 10% | % visual injury, Obs ([22]; applied alone, 560 g/ha): 30% | % visual injury, Obs ([23]; applied alone, 560 g/ha): 0% | % visual injury (Obs) [24]: 68% | % visual injury, Obs ([24]; applied alone, 560 g/ha): 80% | % visual injury, Obs ([25]; applied alone, 560 g/ha): 65% | % visual injury (Obs) ([26]; BRSNW, alone 280 g/ha): 63% | plant injury at 560 g/ha ([26]; Brassica napus, post-emergence, BRSNW, applied alone, 560 g/ha, read-out: % visual injury, Obs): 75% | % visual injury, Obs ([27]; VERPE, applied alone, 560 g/ha): 30%
